From PMC3274524, “In Vitro Pharmacological Characterization of RXFP3 Allosterism: An Example of Probe Dependency” (PLoS ONE, 2012)

Legend:
[1] = target: T1, norepinephrine transporter (Homo sapiens, UniProt P23975); test: radioligand binding selectivity panel (CEREP/in house), single concentration
T1 construct: gene SLC6A2

[2] = target: T2, RXFP3 (relaxin-3 receptor; GPCR135; SALPR) (Homo sapiens, UniProt Q9NSD7); test: Ca2+ mobilization (FLIPR) agonist curve shift, allosteric ternary complex model; also increased […]R3/I5NH2 binding in membranes; type: cell-based
T2 construct: cloned human RXFP3 receptor, stably expressed in HEK-293 cells with GqI5; with Relaxin-3NH2 (amidated orthosteric agonist; also R3/I5NH2)
T2 sequence (Q9NSD7 1-469): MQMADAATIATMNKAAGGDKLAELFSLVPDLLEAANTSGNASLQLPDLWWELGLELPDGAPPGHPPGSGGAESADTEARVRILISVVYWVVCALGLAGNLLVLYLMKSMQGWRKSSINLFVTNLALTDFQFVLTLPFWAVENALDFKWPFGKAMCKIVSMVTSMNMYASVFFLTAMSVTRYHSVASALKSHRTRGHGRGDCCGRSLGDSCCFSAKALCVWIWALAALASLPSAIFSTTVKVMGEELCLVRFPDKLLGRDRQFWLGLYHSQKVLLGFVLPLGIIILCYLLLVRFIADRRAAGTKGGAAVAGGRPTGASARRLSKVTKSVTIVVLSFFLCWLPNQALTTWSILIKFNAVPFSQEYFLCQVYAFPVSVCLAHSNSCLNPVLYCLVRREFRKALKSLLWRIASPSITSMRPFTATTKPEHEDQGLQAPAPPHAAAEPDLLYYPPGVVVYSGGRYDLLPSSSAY

[3] = target: T3, serotonin 5-HT1A (Homo sapiens, UniProt P08908); test: radioligand binding selectivity panel (CEREP/in house), single concentration
T3 construct: gene HTR1A
T3 sequence (P08908 1-422): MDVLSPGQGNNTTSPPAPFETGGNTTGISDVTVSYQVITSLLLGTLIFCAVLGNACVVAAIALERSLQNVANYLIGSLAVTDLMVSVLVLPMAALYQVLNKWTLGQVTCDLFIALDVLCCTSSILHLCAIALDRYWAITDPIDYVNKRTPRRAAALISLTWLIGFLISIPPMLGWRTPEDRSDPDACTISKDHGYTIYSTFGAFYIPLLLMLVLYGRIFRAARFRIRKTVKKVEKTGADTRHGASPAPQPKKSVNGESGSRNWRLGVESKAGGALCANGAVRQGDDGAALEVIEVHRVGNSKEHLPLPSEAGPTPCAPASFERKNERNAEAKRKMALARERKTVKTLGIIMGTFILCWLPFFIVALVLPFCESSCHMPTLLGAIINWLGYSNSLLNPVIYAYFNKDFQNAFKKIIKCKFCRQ

[4] = target: T4, dopamine transporter (Homo sapiens, UniProt Q01959); test: as above
T4 construct: gene SLC6A3
T4 sequence (Q01959 whole entry): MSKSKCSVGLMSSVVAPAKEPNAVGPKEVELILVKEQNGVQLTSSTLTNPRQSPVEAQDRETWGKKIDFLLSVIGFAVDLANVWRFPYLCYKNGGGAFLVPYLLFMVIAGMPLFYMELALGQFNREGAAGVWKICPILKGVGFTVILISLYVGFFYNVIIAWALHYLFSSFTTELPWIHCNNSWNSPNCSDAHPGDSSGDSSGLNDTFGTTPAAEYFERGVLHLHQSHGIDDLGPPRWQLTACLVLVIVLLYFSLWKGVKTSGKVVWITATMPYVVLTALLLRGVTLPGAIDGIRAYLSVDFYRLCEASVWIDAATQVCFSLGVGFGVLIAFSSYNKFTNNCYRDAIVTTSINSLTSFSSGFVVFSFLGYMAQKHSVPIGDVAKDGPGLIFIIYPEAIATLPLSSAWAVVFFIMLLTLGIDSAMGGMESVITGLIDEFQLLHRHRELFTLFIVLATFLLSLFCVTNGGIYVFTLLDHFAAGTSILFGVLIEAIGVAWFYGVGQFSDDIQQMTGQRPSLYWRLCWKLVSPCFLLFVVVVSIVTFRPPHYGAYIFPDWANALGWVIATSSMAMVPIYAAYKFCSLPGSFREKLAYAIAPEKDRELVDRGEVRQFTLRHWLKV

T1 sequence (P23975 whole entry): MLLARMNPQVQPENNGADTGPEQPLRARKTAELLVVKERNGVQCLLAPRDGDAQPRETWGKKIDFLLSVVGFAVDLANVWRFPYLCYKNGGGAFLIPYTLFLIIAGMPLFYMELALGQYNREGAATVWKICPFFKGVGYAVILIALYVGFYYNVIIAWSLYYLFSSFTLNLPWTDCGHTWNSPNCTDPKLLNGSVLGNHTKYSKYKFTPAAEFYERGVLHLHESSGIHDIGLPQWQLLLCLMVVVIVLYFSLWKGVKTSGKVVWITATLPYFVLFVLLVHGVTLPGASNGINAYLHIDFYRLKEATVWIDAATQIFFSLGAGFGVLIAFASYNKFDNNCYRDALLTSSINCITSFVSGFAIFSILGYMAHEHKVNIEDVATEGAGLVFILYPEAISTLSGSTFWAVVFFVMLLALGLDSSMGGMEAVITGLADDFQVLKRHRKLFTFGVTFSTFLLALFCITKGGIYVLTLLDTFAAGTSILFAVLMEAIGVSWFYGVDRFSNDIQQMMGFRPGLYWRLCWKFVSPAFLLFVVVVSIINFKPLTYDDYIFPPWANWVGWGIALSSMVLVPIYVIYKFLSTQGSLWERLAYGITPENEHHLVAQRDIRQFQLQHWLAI

`COc1ccc2[nH]cc(CCN(Cc3ccc(Cl)c(Cl)c3)C(=O)Nc3cc(C(F)(F)F)cc(C(F)(F)F)c3)c2c1` [135PAM1, 3-[3,5-Bis(trifluoromethyl)phenyl]-1-(3,4-dichlorobenzyl)-1-[2-(5-methoxy-1H-indol-3-yl)ethyl]urea] was tested, and the inhibition at 10 µM [1] was 59%, the Kb [2] was 355 nM and the inhibition at 10 µM [3] was 74%. The inhibition at 10 µM [4] was 83%.
